Read-outs that look alike come from different tables or passages of the source.
Experiments:
[1] = tested on: P. falciparum 3D7; experiment: SYBR Green I growth inhibition assay, blood stage; assay type: cell-based; details: Plasmodium falciparum
Description: P. falciparum blood stage culturing. P. falciparum 3D7 and FCR3 cultures were maintained using modified, previously published methods at 37° C., 2% hematocrit of human red blood cells (Science 1976, 193, 673-675). Complete culture media consisted of sterile RPMI 1640 media (Life Technologies), supplemented with 10% human serum, 0.005% hypoxanthine, and buffered with final concentrations of 0.6% HEPES and 0.26% NaHCO3. The FCR3 strain was maintained at 3% CO2 and 5% O2, 92% N2 atmosphere, while the 3D7 strain was maintained at 5% CO2, 5% O2, 90% N2 atmosphere.
SYBR Green I growth inhibition assay. 10 μL of 10× compound diluted in RPMI 1640 media (Gibco) with a constant concentration of 1% DMSO was added to a 96 well plate (Costar), 90 μL of 1.5% ring stage, synchronized with 5% w/v sorbitol P. falciparum 3D7 parasites, 1% hematocrit, in culture media with 10% v/v human serum with 10 μg/mL gentamycin. Each compound concentration and 1% v/v DMSO controls were run in triplicate. Plates were incubated at 37° C. in 5% O2, 5% CO2 and 90% N2 for 72 hours. Plates were frozen, thawed, and incubated with 100-μL 2× SYBR green in lysis buffer (20 mM Tris pH 7.5, 5 mM EDTA, 0.008% Saponin, 0.08% TritonX-100) in the dark for at least one hour. Fluorescence was measured with a plate reader (HTS 7000, Perkin Elmer) at excitation/emission wavelengths of 485/535 nm.
Plasmodium parasite growth inhibition assay. P. falciparum 3D7 parasites were cultured as previously described (J Med Chem 57:4521-4531(2014)). Briefly, the parasites were cultured in 10% v/v human serum with 10 μg/mL gentamycin and synchronized with 5% w/v sorbitol. 1.5% ring stage parasites were added to 96 well plates (Costar) containing serial dilutions, performed in triplicate, of compound in RPMI 1640 media (Gibco). Plates were incubated at 37° C. in 5% O2, 5% CO2, and 90% N2 for 72 h. Plates were frozen, thawed, and incubated with 100 μL 2× SYBR green in lysis buffer (20 mM Tris pH 7.5, 5 mM EDTA, 0.008% Saponin, 0.08% TritonX-100) in the dark for 1 h. Fluorescence was measured with a plate reader (HTS 7000, PerkinElmer) at excitation/emission wavelengths of 485/535 nm.

[2] = tested on: human cell lines; details: cited from earlier work
[3] = target: PfAtg8^CM (Plasmodium falciparum, UniProt Q8IJK2); experiment: SPR direct binding of compound 1 to immobilized His12-PfAtg8^CM; set-up: other: 2-fold dilution series, highest 75 μM; fused on or other part: N-terminal His12 tag; species or system P. falciparum; details: 2-fold dilution series, highest 75 μM
Description: His12-PfAtg8^CM was injected over an NTA-chip (GE Healthcare) preconditioned with nickel, leading to capture of 3,000 response units (RUs). Running buffer contained 3% DMSO. A 2-fold-dilution series of compounds, highest concentration of 75 μM, was injected over PfAtg8 variants at 40 μL/minute.
Determination of the PTA binding site on PfAtg8. The inventors tested whether these compounds bound directly to PfAtg8 using SPR. PfAtg8^CM was immobilized onto an SPR Ni-NTA chip via a twelve histidine N-terminal tag. […] It was then sought to determine the binding site for the PTA compounds with in silico docking.

[4] = tested on: P. yoelii liver stage; details: screening concentration 10 μM; cited from earlier work
[5] = tested on: PfAtg8; experiment: Immunoblot analysis of PfAtg8 in P. falciparum blood stage cultures; assay type: cell-based; details: for lipidation of PfAtg8: 12 hours
Excerpt: Immunoblot analysis of P. falciparum blood stage. […] RBCs were harvested with centrifugation, lysed with 0.2% saponin, and RBC lysate was removed through three 1× PBS washes. Parasites were harvested by centrifugation and washed in 1× PBS with Complete EDTA-free protease inhibitors (Roche) and lysed by repeated vortexing and boiling in SDS reducing sample buffer. […] HRP-conjugated secondary antibodies (Southern Biotech) were detected by SuperSignal West Femto (Thermo Scientific) or Amersham™ ECL™ Prime (GE Healthcare) chemiluminescent substrate. AP-conjugated secondary antibodies (EMD Millipore) were detected using NBT/BCIP (Promega) colorimetric stain. Total protein levels were visualized with ProAct™ Membrane Stain (Amresco) and quantified with ImageJ. Parasite morphology at time of harvesting was visualized with light microscopy at 100× magnification on Olympus BX53 system microscope (Olympus America, Inc.).

[6] = tested on: P. falciparum 3D7-GFP; assay type: cell-based; details: for decrease in the proportion of infected hepatocytes (GFP+/PI- cells): 72 hours post infection
Description: In vitro infection of human hepatocytes with P. falciparum 3D7-GFP. The HC-04 cell line (ATCC, Manassas, Va., USA) was maintained in complete medium (IMDM containing 2.5% FCS, 100 units/ml penicillin, 100 μg/ml streptomycin and 2 mM L-glutamine, all from GIBCO®, Life Technologies, Grand Island, N.Y.). P. falciparum 3D7-GFP parasite strain (PLoS ONE 2010, 5, e9156) was propagated in the Parasitology Core facility, the Johns Hopkins Malaria Research Institute. In vitro infection of human hepatocytes was done as described previously (PLoS ONE 2013, 8, e75321). Briefly, salivary glands were sequestered from infected Anopheles gambiae mosquitoes at day 17 after exposure to infective blood meal and homogenates were separated on an OptiPrep™ Density Gradient (Sigma-Aldrich, St. Louis, Mo.) at 12,000×g for 10 minutes. Sporozoites were collected from the gradient interface, washed in complete medium, counted using a hemocytometer and incubated with HC-04 cells at 3:1 sporozoite to hepatocyte ratio for 2 hours at 37° C. […]
Detection of P. falciparum exoerythrocytic forms in vitro. HC-04 human hepatocyte cell line (ATCC, Manassas, Va., USA) was maintained in complete medium (IMDM containing 2.5% FCS, 100 units/ml penicillin, 100 μg/ml streptomycin and 2 mM L-glutamine, all from GIBCO®, Life Technologies, Grand Island, N.Y.). P. falciparum 3D7HT-GFP parasite strain (PLoS One. 5(2):e9156. doi:10.1371/journal.pone.0009156 (2010)) was propagated in the Parasitology Core facility of the Johns Hopkins Malaria Research Institute. In vitro infection of human hepatocytes, and detection and quantification of P. falciparum 3D7HT-GFP EEFs by flow cytometry were performed as previously described (PLoS One. 8(9):e75321. doi:10.1371/journal.pone.0075321 (2013)).

[7] = tested on: HC-04 cells; experiment: HC-04 hepatocyte viability / cytotoxicity (Annexin-V, PI flow cytometry); assay type: cell-based, human; details: 30 μM
Description: Detection of Annexin-V positive and PI-positive cells in hepatocyte cultures was done by flow cytometry according to the manufacturer's instruction (Invitrogen™, Life Technologies, Grand Island, N.Y., USA).
Hepatocyte cytotoxicity assay. Hepatocyte cytotoxicity assays were carried out in triplicate at two concentrations of inhibitory compounds using HC-04 cells as previously described. Flow cytometry was used to assess two cytotoxicity markers via staining, namely propidium iodine (PI) and Annexin-V.

[8] = target: T1, PfAtg3 (Plasmodium falciparum, UniProt C0H519); experiment: SPR binding of PfAtg3 to immobilized compound 8; details: data not shown
T1 construct: made in house
T1 sequence (C0H519 1-313): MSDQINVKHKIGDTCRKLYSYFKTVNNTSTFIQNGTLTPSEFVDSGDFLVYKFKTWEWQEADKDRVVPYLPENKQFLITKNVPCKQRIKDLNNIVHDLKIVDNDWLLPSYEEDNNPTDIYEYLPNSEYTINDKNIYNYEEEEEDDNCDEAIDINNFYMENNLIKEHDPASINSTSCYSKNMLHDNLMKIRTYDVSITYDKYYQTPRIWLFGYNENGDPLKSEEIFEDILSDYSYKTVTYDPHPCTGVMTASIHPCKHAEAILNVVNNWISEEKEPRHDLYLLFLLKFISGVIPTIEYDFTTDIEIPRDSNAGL
Description: (§1) Direct binding of compound 8 to PfAtg8^CM. Compound 8 was injected over a neutravidin-coated SPR chip (GE Healthcare) on one flowcell, with 130 RUs immobilized, while BACH was injected over a reference flowcell (150 RUs immobilized). His6-PfAtg8^CM, Human LC3, or His6-PfAtg3 was injected in duplicate in running buffer containing 10 mM HEPES pH 7.5, 150 mM NaCl, 0.05% P20. Protein was dissociated from the chip after each cycle with 10 μL injection of 20 mM HEPES pH 7.4, 1% w/v SDS regeneration solution.
(§2) Synthesis of a novel PTA derivative with a functional handle. […] A PTA-benzaldehyde derivative, 4-formyl-N-(4-pyridin-2-yl-1,3-thiazol-2-yl)benzamide (compound 7) was synthesized with a functional handle extending off the common hydrophobic ring system (Table 1, Scheme 1). Compound 7 was prepared from commercially available PTA and 4-formyl benzoic acid through a DCC-promoted amide coupling. Compound 7 can be tethered through a dialkoxyamine linker to a library of aldehydes and screened using our primary SPR competition assay against the PfAtg8-PfAtg3 interaction. In docking studies, compound 7 bound the W- and L-site of PfAtg8 in a fashion similar to compound 2, with the functional handle positioned towards the A-loop pocket (FIG. 7A). A gain in parasite selectivity for such bifunctional analogs is expected as the A-loop is missing in the human Atg8 homologues. […]

[9] = target: T2, PfAtg8^CM (Plasmodium falciparum, UniProt Q8IJK2); experiment: SPR binding of PfAtg8^CM to immobilized compound 8; set-up: species or system P. falciparum
T2 construct: rows headed: KD; other: immobilized compound
T2 sequence (Q8IJK2 1-124 C32I/C119S/C122S): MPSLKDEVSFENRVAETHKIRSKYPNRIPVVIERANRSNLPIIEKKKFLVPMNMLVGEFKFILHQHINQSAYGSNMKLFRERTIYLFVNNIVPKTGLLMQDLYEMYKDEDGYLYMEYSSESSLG
Description: as §1, §2

[10] = target: PfAtg8-PfAtg3 interaction (Plasmodium falciparum, UniProt Q8IJK2); assay type: binding, P. falciparum
[11] = target: T3, hLC3 (Homo sapiens, UniProt Q9GZQ8); experiment: SPR binding of hLC3 to immobilized compound 8
T3 construct: made in house
Description: as §1, §2

[12] = 3D7, no asterisk, read-out: IC50 Blood stage

SMILES	IC50 [1, 12] [nM]	IC50 ([1]; 3D7, third experiment, read-out: IC50) [nM]	IC50 ([1]; 3D7, two of three independent experiments, read-out: IC50) [nM]	IC50 ([1]; 3D7, two to three experiments, read-out: average IC50) [nM]	reported cytotoxicity in human cell lines [2]	SPR response, direct binding to PfAtg8^CM [3]	inhibition in P. yoelii liver stage cultures [4] [%]	lipidation of PfAtg8 ([5]; 5 μM)	lipidation of PfAtg8 ([5]; 25 μM and 50 μM)	PfAtg8 protein levels ([5]; 50 μM, five hours)	mobility of PfAtg8 ([5]; 50 μM, five hours)	intensity of GFP fluorescence ([6]; 3 μM and 30 μM, 72 hours)	decrease in the proportion of infected hepatocytes (GFP+/PI- cells) ([6]; 3 μM)	decrease in the proportion of infected hepatocytes (GFP+/PI- cells) ([6]; 30 μM) [%]	cell death in HC-04 cells [7]	binding of recombinant PfAtg3 [8]	Kd [9] [nM]	LEAN (SPR) ([10]; -log (IC50)/number of heavy atoms)	IC50 ([10]; read-out: IC50 SPR, inhibition of PfAtg8-PfAtg3 interaction) [nM]	Kd [11] [nM]
Cc1ccc(Nc2nc(-c3ccccn3)cs2)cc1 [Compound 1, N-(4-methylphenyl)-4-pyridin-2-yl-1,3-thiazol-2-amine]	1470	3300	768	1610 ± 1470	much lower than that of compounds 2 or 3	dose-dependent increase in SPR response	≤ 50	dose-dependent decrease in lipidation	unlipidated PfAtg8 is exclusively detected	drastic increase	shift in mobility, likely corresponding to the unlipidated form of PfAtg8	dose-dependent reduction	but not 3 μM	~50	did not observe cell death	–	–	–	–	–
O=C(CCCC[C@H]1SC[C@H]2NC(=O)N[C@H]21)NCCCCCC(=O)NNCc1ccc(C(=O)Nc2nc(-c3ccccn3)cs2)cc1 [Compound 8, 4-[[2-[6-[5-[(3aR,4R,6aS)-2-Oxo-1,3,3a,4,6,6a-hexahydrothieno[3,4-d]imidazol-4-yl]pentanoylamino]hexanoyl]hydrazinyl]methyl]-N-(4-pyridin-2-yl-1,3-thiazol-2-yl)benzamide]	1480	–	–	–	–	–	–	–	–	–	–	–	–	–	–	did not bind	540	0.22	2660	18000
